# pIC50: −log10 of the molar value.
# How the values were obtained:
# Assay type in all cases: functional, organism-based
# Plasmodium falciparum [1] = assay: Antimalarial activity against multidrug-resistant Plasmodium falciparum TM91C235 assessed as inhibition of [3H]hypoxanthine incorporation after 96 hrs by microtiter plate scintillation counting
# Plasmodium falciparum [2] = assay: Antimalarial activity against chloroquine-sensitive Plasmodium falciparum D6 assessed as inhibition of [3H]hypoxanthine incorporation after 96 hrs by microtiter plate scintillation counting
# Plasmodium falciparum [3] = assay: Antimalarial activity against chloroquine-,pyrimethamine-resistant Plasmodium falciparum W2 assessed as inhibition of [3H]hypoxanthine incorporation after 96 hrs by microtiter plate scintillation counting
SMILES,pIC50 (Plasmodium falciparum [1]),pIC50 (Plasmodium falciparum [2]),pIC50 (Plasmodium falciparum [3])
CC[C@H]1OC(=O)[C@H](C)[C@@H](O[C@H]2C[C@@](C)(OC)[C@@H](O)[C@H](C)O2)[C@H](C)[C@@H](O[C@@H]2O[C@H](C)C[C@H](N(C)C)[C@H]2O)[C@](C)(O)C[C@@H](C)CN(CCCNC(=S)NCCCN(CC)CC)[C@H](C)[C@@H](O)[C@]1(C)O,4.91,6.10,5.50
CC[C@H]1OC(=O)[C@H](C)[C@@H](O[C@H]2C[C@@](C)(OC)[C@@H](O)[C@H](C)O2)[C@H](C)[C@@H](O[C@@H]2O[C@H](C)C[C@H](N(C)C)[C@H]2O)[C@](C)(O)C[C@@H](C)CN(CCCNC(=O)Nc2ccc(C(F)(F)F)cc2)[C@H](C)[C@@H](O)[C@]1(C)O,7.07,6.80,7.13
CC[C@H]1OC(=O)[C@H](C)[C@@H](O[C@H]2C[C@@](C)(OC)[C@@H](O)[C@H](C)O2)[C@H](C)[C@@H](O[C@@H]2O[C@H](C)C[C@H](N(C)C)[C@H]2O)[C@](C)(O)C[C@@H](C)CN(CCCNC(=O)Nc2cc(F)cc3c2OCOC3)[C@H](C)[C@@H](O)[C@]1(C)O,6.66,6.55,6.51
CC[C@H]1OC(=O)[C@H](C)[C@@H](O[C@H]2C[C@@](C)(OC)[C@@H](O)[C@H](C)O2)[C@H](C)[C@@H](O[C@@H]2O[C@H](C)C[C@H](N(C)C)[C@H]2O)[C@](C)(O)C[C@@H](C)CN(CCCNC(=S)Nc2ccc(N3CCOCC3)nc2)[C@H](C)[C@@H](O)[C@]1(C)O,5.80,5.55,5.71
CC[C@H]1OC(=O)[C@H](C)[C@@H](O[C@H]2C[C@@](C)(OC)[C@@H](O)[C@H](C)O2)[C@H](C)[C@@H](O[C@@H]2O[C@H](C)C[C@H](N(C)C)[C@H]2O)[C@](C)(O)C[C@@H](C)CN(CCCNC(=S)Nc2ccc(Br)cc2)[C@H](C)[C@@H](O)[C@]1(C)O,6.76,6.58,6.77
CC[C@H]1OC(=O)[C@H](C)[C@@H](O[C@H]2C[C@@](C)(OC)[C@@H](O)[C@H](C)O2)[C@H](C)[C@@H](O[C@@H]2O[C@H](C)C[C@H](N(C)C)[C@H]2O)[C@](C)(O)C[C@@H](C)CN(CCCNC(=O)Nc2cccc(F)c2)[C@H](C)[C@@H](O)[C@]1(C)O,6.79,6.24,6.55
CC[C@H]1OC(=O)[C@H](C)[C@@H](O[C@H]2C[C@@](C)(OC)[C@@H](O)[C@H](C)O2)[C@H](C)[C@@H](O[C@@H]2O[C@H](C)C[C@H](N(C)C)[C@H]2O)[C@](C)(O)C[C@@H](C)CN(CCCNC(=S)Nc2cccc([N+](=O)[O-])c2)[C@H](C)[C@@H](O)[C@]1(C)O,7.37,7.27,7.32
CC[C@H]1OC(=O)[C@H](C)[C@@H](O[C@H]2C[C@@](C)(OC)[C@@H](O)[C@H](C)O2)[C@H](C)[C@@H](O[C@@H]2O[C@H](C)C[C@H](N(C)C)[C@H]2O)[C@](C)(O)C[C@@H](C)CN(CCCNC(=O)Nc2ccc(Cl)cc2)[C@H](C)[C@@H](O)[C@]1(C)O,7.04,6.73,7.00
CC[C@H]1OC(=O)[C@H](C)[C@@H](O[C@H]2C[C@@](C)(OC)[C@@H](O)[C@H](C)O2)[C@H](C)[C@@H](O[C@@H]2O[C@H](C)C[C@H](N(C)C)[C@H]2O)[C@](C)(O)C[C@@H](C)CN(CCCNC(=S)Nc2ccc([N+](=O)[O-])cc2OC)[C@H](C)[C@@H](O)[C@]1(C)O,7.16,7.13,7.30
CC[C@H]1OC(=O)[C@H](C)[C@@H](O[C@H]2C[C@@](C)(OC)[C@@H](O)[C@H](C)O2)[C@H](C)[C@@H](O[C@@H]2O[C@H](C)C[C@H](N(C)C)[C@H]2O)[C@](C)(O)C[C@@H](C)CN(CCCNC(=O)Nc2ccc3c(c2)OCCCO3)[C@H](C)[C@@H](O)[C@]1(C)O,7.22,7.55,7.39
CC[C@H]1OC(=O)[C@H](C)[C@@H](O[C@H]2C[C@@](C)(OC)[C@@H](O)[C@H](C)O2)[C@H](C)[C@@H](O[C@@H]2O[C@H](C)C[C@H](N(C)C)[C@H]2O)[C@](C)(O)C[C@@H](C)CN(CCCNC(=O)Nc2cccs2)[C@H](C)[C@@H](O)[C@]1(C)O,6.26,6.02,6.14
CC[C@H]1OC(=O)[C@H](C)[C@@H](O[C@H]2C[C@@](C)(OC)[C@@H](O)[C@H](C)O2)[C@H](C)[C@@H](O[C@@H]2O[C@H](C)C[C@H](N(C)C)[C@H]2O)[C@](C)(O)C[C@@H](C)CN(CCCNC(=S)Nc2ccc(OC(F)F)cc2)[C@H](C)[C@@H](O)[C@]1(C)O,6.92,6.66,7.20
CC[C@H]1OC(=O)[C@H](C)[C@@H](O[C@H]2C[C@@](C)(OC)[C@@H](O)[C@H](C)O2)[C@H](C)[C@@H](O[C@@H]2O[C@H](C)C[C@H](N(C)C)[C@H]2O)[C@](C)(O)C[C@@H](C)CN(CCCNC(=O)NC2CCCC2)[C@H](C)[C@@H](O)[C@]1(C)O,6.21,5.22,6.56

# — ChEMBL document CHEMBL1681728, “An automated, polymer-assisted strategy for the preparation of urea and thiourea derivatives of 15-membered azalides as potential antimalarial chemotherapeutics” (Bioorg Med Chem, 2011)
